Assay results reported in patent publication US10471046B2, “Method for treating, preventing, or reducing the risk of skin infection” (Melinta Subsidiary Corp., priority 2014, dated 2019).
≈ marks a conversion by molar mass, not a printed value.

System: S. aureus
Test: Minimum inhibitory concentrations (MICs) for S. aureus of exemplary compounds (Table 2)
Type: cell-based
Details: Staphylococcus aureus, minimum inhibitory concentrations for S. aureus; read-out: MICs
How it was run: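 Growth of S. aureus in media with or without compound, by broth microdilution in microtiter trays following NCCLS M7-A5 guidelines. Values are MICs in μg/mL.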

| SMILES | MIC |
| --- | --- |
| CC(=O)NC[C@H]1CN(c2ccc(-c3ccc([C@@H](CO)NCc4cocn4)cc3)c(F)c2)C(=O)O1 [Compound 4200, N-[3-(2-Fluoro-4′-{2-hydroxy-1-(S)-[(oxazol-4-ylmethyl)-amino]-ethyl}-biphenyl-4-yl)-2-oxo-oxazolidin-5-(S)-ylmethyl]-acetamide] | 4 µg/mL (≈ 8.54 µM) |
| CC(=O)NC[C@H]1CN(c2ccc(-c3ccc(CNCc4cc(C)oc4C)cc3)c(F)c2)C(=O)O1 [Compound 4103, N-[3-(4′-{[(2,5-Dimethyl-furan-3-ylmethyl)-amino]-methyl}-2-fluoro-biphenyl-4-yl)-2-oxo-oxazolidin-5-(S)-ylmethyl]-acetamide] | 8 µg/mL (≈ 17.2 µM) |
| CC(=O)NC[C@H]1CN(c2ccc(-c3ccc(CNCCN4CCNC4=O)cc3)c(F)c2)C(=O)O1 [Compound 4114, N-[3-(2-Fluoro-4′-{[2-(2-oxo-imidazolidin-1-yl)-ethylamino]-methyl}-biphenyl-4-yl)-2-oxo-oxazolidin-5-(S)-ylmethyl]-acetamide] | 16 µg/mL (≈ 34.1 µM) |
| CC(=O)NC[C@H]1CN(c2ccc(-c3ccc(CNS(=O)(=O)c4cccc5cccnc45)cc3)c(F)c2)C(=O)O1 [Compound 2051, N-(3-{2-Fluoro-4′-[(quinoline-8-sulfonylamino)-methyl]-biphenyl-4-yl}-2-oxo-oxazolidin-5-(S)-ylmethyl)-acetamide] | 4 µg/mL (≈ 7.29 µM) |
| CC(=O)NC[C@H]1CN(c2ccc(-c3ccc(C(O)Cc4nnn[nH]4)cc3)c(F)c2)C(=O)O1 (stereo in doubt) [Compound 1060, N-(3-{2-Fluoro-4′-[1-(R)-hydroxy-2-(1H-tetrazol-5-yl)-ethyl]-biphenyl-4-yl}-2-oxo-oxazolidin-5-(S)-ylmethyl)-acetamide] | 64 µg/mL (≈ 145 µM) |
| CC(=O)NC[C@H]1CN(c2ccc(-c3ccc(CNCc4ccncc4)cc3)nc2)C(=O)O1 [Compound 4134, N-{2-Oxo-3-[6-(4-{[(pyridin-4-ylmethyl)-amino]-methyl}-phenyl)-pyridin-3-yl]-oxazolidin-5-(S)-ylmethyl}-acetamide] | 16 µg/mL (≈ 37.1 µM) |
| CC(=O)NC[C@H]1CN(c2ccc(-c3ccc(CNCCc4c[nH]cn4)cc3)c(F)c2)C(=O)O1 [Compound 4227, N-[3-(2-Fluoro-4′-{[2-(1H-imidazol-4-yl)-ethylamino]-methyl}-biphenyl-4-yl)-2-oxo-oxazolidin-5-(S)-ylmethyl]-acetamide] | 4 µg/mL (≈ 8.86 µM) |
| COc1ccc2[nH]c(C(=O)NCc3ccc(-c4ccc(N5C[C@H](CNC(C)=O)OC5=O)cc4F)cc3)cc2c1 [Compound 4015, 5-Methoxy-1H-indole-2-carboxylic acid {4′-[5-(S)-(acetylamino-methyl)-2-oxo-oxazolidin-3-yl]-2′-fluoro-biphenyl-4-ylmethyl}-amide] | 4 µg/mL (≈ 7.54 µM) |
| CC(=O)NC[C@H]1CN(c2ccc(-c3ccc([C@@H](N)Cn4ccnc4)cc3)c(F)c2)C(=O)O1 [Compound 1031, N-{3-[4′-(R)-(1-Amino-2-imidazol-1-yl-ethyl)-2-fluoro-biphenyl-4-yl]-2-oxo-oxazolidin-5-(S)-ylmethyl}-acetamide] | 8 µg/mL (≈ 18.3 µM) |
| CC(=O)NC[C@H]1CN(c2ccc(-c3ccc(C(=N)NCc4ccncc4)cc3)c(F)c2)C(=O)O1 [Compound 4080, N-{3-[2-Fluoro-4′-(N-pyridin-4-ylmethyl-carbamimidoyl)-biphenyl-4-yl]-2-oxo-oxamlidin-5-(S)-ylmethyl}-acetamide] | 128 µg/mL (≈ 277 µM) |
| CC(=O)NC[C@H]1CN(c2ccc(-c3ccc(CN(Cc4c[nH]cn4)Cc4cnc[nH]4)cc3)c(F)c2)C(=O)O1 [Compound 4068, N-[3-(2-Fluoro-4′-{[(1H-imidazol-4-ylmethyl)-(3H-imidazol-4-ylmethyl)-amino]-methyl}-biphenyl-4-yl)-2-oxo-oxazolidin-5-(S)-ylmethyl]-acetamide] | 128 µg/mL (≈ 247 µM) |
| O=C1O[C@@H](Cn2cncn2)CN1c1ccc(-c2ccc(CNCc3ccncc3)cc2)c(F)c1 [Compound 4230, 3-(2-Fluoro-4′-{[(pyridin-4-ylmethyl)-amino]-methyl}-biphenyl-4-yl)-5-(R)-[1,2,4]triazol-1-ylmethyl-oxazolidin-2-one] | 32 µg/mL (≈ 69.8 µM) |

Continued by falling MIC, values first:

| MIC | SMILES |
| --- | --- |
| 4 µg/mL (≈ 8.04 µM) | CC(=O)NC[C@H]1CN(c2ccc(-c3ccc(CNCc4cccc5ccccc45)cc3)c(F)c2)C(=O)O1 [Compound 4022, N-[3-(2-Fluoro-4′-{[(naphthalen-1-ylmethyl)-amino]-methyl}-biphenyl-4-yl)-2-oxo-oxazolidin-5-(S)-ylmethyl]-acetamide] |
| 2 µg/mL (≈ 4.04 µM) | CO/N=C(\CNCc1cocn1)c1ccc(-c2ccc(N3C[C@H](CNC(C)=O)OC3=O)cc2F)cc1 [Compound 4255, N-[3-(2-Fluoro-4′-{1-methoxyimino-2-[(oxazol-4-ylmethyl)-amino]-ethyl}-biphenyl-4-yl)-2-oxo-oxazolidin-5-(S)-ylmethyl]-acetamide] |
| 2 µg/mL (≈ 4.31 µM) | CC(=O)NC[C@H]1CN(c2ccc(-c3ccc(CNCc4cc[n+]([O-])cc4)cc3)c(F)c2)C(=O)O1 [Compound 4245, N-[3-(2-Fluoro-4′-{[(1-oxy-pyridin-4-ylmethyl)-amino]-methyl}-biphenyl-4-yl)-2-oxo-oxazolidin-5-(S)-ylmethyl]-acetamide] |
| 2 µg/mL (≈ 4.26 µM) | CC(=O)NC[C@H]1CN(c2ccc(-c3ccc(CN4CCC(CCO)CC4)cc3)c(F)c2)C(=O)O1 [Compound 1030, N-(3-{2-Fluoro-4′-[4-(2-hydroxy-ethyl)-piperidin-1-ylmethyl]-biphenyl-4-yl}-2-oxo-oxazolidin-5-(S)-ylmethyl)-acetamide] |
| 2 µg/mL (≈ 4.11 µM) | CC(=O)NC[C@H]1CN(c2ccc(-c3ccc(CNCc4c[nH]c5ccccc45)cc3)c(F)c2)C(=O)O1 [Compound 4083, N-[3-(2-Fluoro-4′-{[(1H-indol-3-ylmethyl)-amino]-methyl}-biphenyl-4-yl)-2-oxo-oxazolidin-5-(S)-ylmethyl]-acetamide] |
| 2 µg/mL (≈ 4.01 µM) | CC(=O)NC[C@H]1CN(c2ccc(-c3ccc(CNCc4cccc5cnccc45)cc3)c(F)c2)C(=O)O1 [Compound 4065, N-[3-(2-Fluoro-4′-{[(isoquinolin-5-ylmethyl)-amino]-methyl}-biphenyl-4-yl)-2-oxo-oxazolidin-5-(S)-ylmethyl]-acetamide] |
| 2 µg/mL (≈ 4.14 µM) | CC(=O)NC[C@H]1CN(c2ccc(-c3ccc(CNC(=O)c4csc(C)n4)cc3)c(F)c2)C(=O)O1 [Compound 4242, 2-Methyl-thiazole-4-carboxylic acid {4′-[5-(S)-(acetylamino-methyl)-2-oxo-oxazolidin-3-yl]-2′-fluoro-biphenyl-4-ylmethyl}-amide] |
| 2 µg/mL (≈ 3.29 µM) | CC(=O)NC[C@H]1CN(c2ccc(-c3ccc(CNC(=O)c4csc(NCc5ccc(Cl)cc5)n4)cc3)c(F)c2)C(=O)O1 [Compound 4207, 2-(4-Chloro-benzylamino)-thiazole-4-carboxylic acid {4′-[5-(S)-(acetylamino-methyl)-2-oxo-oxazolidin-3-yl]-2′-fluoro-biphenyl-4-ylmethyl}-amide] |
| 1 µg/mL (≈ 2.2 µM) | CC(=O)NC[C@H]1CN(c2ccc(-c3ccc(CNCc4ncsn4)cc3)c(F)c2)C(=O)O1 [Compound 4206, N-[3-(2-Fluoro-4′-{[([1,2,4]thiadiazol-3-ylmethyl)-amino]-methyl}-biphenyl-4-yl)-2-oxo-oxazolidin-5-(S)-ylmethyl]-acetamide] |
| 1 µg/mL (≈ 2.13 µM) | CC(=O)NC[C@H]1CN(c2ccc(-c3ccc(CNc4nc(CN)ns4)cc3)c(F)c2)C(=O)O1 [Compound 2012, N-(3-{4′-[(3-Aminomethyl-[1,2,4]thiadiazol-5-ylamino)-methyl]-2-fluoro-biphenyl-4-yl}-2-oxo-oxazolidin-5-(S)-ylmethyl)-acetamide] |
| 1 µg/mL (≈ 2.13 µM) | CC(=O)NC[C@H]1CN(c2ccc(-c3ccc(C(=O)NCc4nccs4)nc3)c(F)c2)C(=O)O1 [Compound 4189, 5-{4-[5-(S)-(Acetylamino-methyl)-2-oxo-oxazolidin-3-yl]-2-fluoro-phenyl}-pyridine-2-carboxylic acid (thiazol-2-ylmethyl)-amide] |
| 1 µg/mL (≈ 2.11 µM) | CC(=O)NC[C@H]1CN(c2ccc(-c3ccc(CNCc4csnn4)c(F)c3)c(F)c2)C(=O)O1 [Compound 4164, N-[3-(2,3′-Difluoro-4′-{[([1,2,3]thiadiazol-4-ylmethyl)-amino]-methyl}-biphenyl-4-yl)-2-oxo-oxazolidin-5-(S)-ylmethyl]-acetamide] |
| 1 µg/mL (≈ 2.28 µM) | CC(=O)NC[C@H]1CN(c2ccc(-c3ccc(Cn4cc(CO)nn4)cc3)c(F)c2)C(=O)O1 [Compound 1028, N-{3-[2-Fluoro-4′-(4-hydroxymethyl-[1,2,3]triazol-1-ylmethyl)-biphenyl-4-yl]-2-oxo-oxazolidin-5-(S)-ylmethyl}-acetamide] |
| 1 µg/mL (≈ 2.14 µM) | CC(=O)NC[C@H]1CN(c2ccc(-c3ccc(CNCc4c(C)noc4C)cc3)c(F)c2)C(=O)O1 [Compound 4109, N-[3-(4′-{[(3,5-Dimethyl-isoxazol-4-ylmethyl)-amino]-methyl}-2-fluoro-biphenyl-4-yl)-2-oxo-oxazolidin-5-(S)-ylmethyl]-acetamide] |
| 1 µg/mL (≈ 2.2 µM) | CC(=O)NC[C@H]1CN(c2ccc(-c3ccc(CNN4CCN(C)CC4)cc3)c(F)c2)C(=O)O1 [Compound 2057, N-(3-{2-Fluoro-4′-[(4-methyl-piperazin-1-ylamino)-methyl]-biphenyl-4-yl}-2-oxo-oxazolidin-5-(S)-ylmethyl)-acetamide] |
| 0.5 µg/mL (≈ 1.07 µM) | CC(=O)NC[C@H]1CN(c2ccc(-c3ccc(CSCc4ccccn4)cc3)c(F)c2)C(=O)O1 [Compound 4216, N-{3-[2-Fluoro-4′-(pyridin-2-ylmethylsulfanylmethyl)-biphenyl-4-yl]-2-oxo-oxazolidin-5-(S)-ylmethyl}-acetamide] |
| 0.25 µg/mL (≈ 0.519 µM) | CC(=O)NC[C@H]1CN(c2ccc(-c3ccc(C[S+]([O-])Cc4ccncc4)cc3)c(F)c2)C(=O)O1 (stereo partly drawn) [Compound 4212, N-{3-[2-Fluoro-4′-(pyridin-4-ylmethanesulfinylmethyl)-biphenyl-4-yl]-2-oxo-oxazolidin-5-(S)-ylmethyl}-acetamide] |
| 0.25 µg/mL (≈ 0.537 µM) | CC(=O)NC[C@H]1CN(c2ccc(-c3ccc(CSCc4ccncc4)cc3)c(F)c2)C(=O)O1 [Compound 4211, N-{3-[2-Fluoro-4′-(pyridin-4-ylmethylsulfanylmethyl)-biphenyl-4-yl]-2-oxo-oxazolidin-5-(S)-ylmethyl}-acetamide] |
